Reference: PubChem BioAssay AID328 (DTP/NCI, 2004)
“And” between values parts separate entries of the source, which are not always exact repeats. Equal entries are not always repeated. Toxic doses and inconclusive results are not listed.

Test system: BDF1 mice, P388 leukemia ip, median survival T/C
Assay: NCI In Vivo Anticancer Drug Screen. Data for tumor model P388 Leukemia (intraperitoneal) in B6D2F1 (BDF1) mice
Conditions: endpoint: median survival time, higher = longer survival
Procedure, shortened: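 Each value expresses how treatment altered survival: treated-mouse outcome over vehicle-mouse outcome, both groups bearing the transplanted tumour.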

[1] = dose: 100.0 mg/kg/injection, schedule: Q04DX003 (ip), vehicle: Klucel (hydroxypropylcellulose) (HPC)
[2] = dose: 50.0 mg/kg/injection, schedule: Q01DX009 (ip), vehicle: saline with Tween-80
[3] = dose: 100.0 mg/kg/injection, schedule: Q01DX009 (ip), vehicle: saline with Tween-80
[4] = dose: 200.0 mg/kg/injection, schedule: Q01DX009 (ip), vehicle: saline with Tween-80
[5] = dose: 400.0 mg/kg/injection, schedule: Q01DX009 (ip), vehicle: saline with Tween-80
[6] = dose: 100.0 mg/kg/injection, schedule: Q04DX003 (ip), vehicle: saline with Tween-80
[7] = dose: 200.0 mg/kg/injection, schedule: Q04DX003 (ip), vehicle: saline with Tween-80
[8] = dose: 400.0 mg/kg/injection, schedule: Q04DX003 (ip), vehicle: saline with Tween-80
[9] = dose: 100.0 mg/kg/injection, schedule: Q01DX001 (ip), vehicle: saline with Tween-80
[10] = dose: 400.0 mg/kg/injection, schedule: Q01DX001 (ip), vehicle: saline with Tween-80
[11] = dose: 200.0 mg/kg/injection, schedule: Q01DX009 (ip), vehicle: saline
[12] = dose: 50.0 mg/kg/injection, schedule: Q01DX009 (ip), vehicle: saline

COc1ccc2c3csc4ccccc4c-3nc2c1
T/C (dose: 12.5 mg/kg/injection, schedule: Q01DX009 (ip), vehicle: Klucel (hydroxypropylcellulose) (HPC)): 109 % of control
T/C (dose: 25.0 mg/kg/injection, schedule: Q01DX009 (ip), vehicle: Klucel (hydroxypropylcellulose) (HPC)): 109 % of control
T/C (dose: 25.0 mg/kg/injection, schedule: Q04DX003 (ip), vehicle: Klucel (hydroxypropylcellulose) (HPC)): 100 % of control and 122 % of control
T/C (dose: 50.0 mg/kg/injection, schedule: Q04DX003 (ip), vehicle: Klucel (hydroxypropylcellulose) (HPC)): 109 % of control
T/C (dose: 75.0 mg/kg/injection, schedule: Q01DX001 (ip), vehicle: Klucel (hydroxypropylcellulose) (HPC)): 112 % of control
T/C [1]: 104 % of control and 105 % of control
T/C (dose: 150.0 mg/kg/injection, schedule: Q01DX001 (ip), vehicle: Klucel (hydroxypropylcellulose) (HPC)): 100 % of control

Cc1ccc(N=C=O)cc1[N+](=O)[O-]
T/C (dose: 25.0 mg/kg/injection, schedule: Q01DX009 (ip), vehicle: gum acacia): 100 % of control
T/C (dose: 50.0 mg/kg/injection, schedule: Q01DX009 (ip), vehicle: gum acacia): 100 % of control
T/C (dose: 100.0 mg/kg/injection, schedule: Q04DX003 (ip), vehicle: gum acacia): 91 % of control
T/C (dose: 200.0 mg/kg/injection, schedule: Q04DX003 (ip), vehicle: gum acacia): 95 % of control
T/C (dose: 400.0 mg/kg/injection, schedule: Q04DX003 (ip), vehicle: gum acacia): 95 % of control

CCOc1ncc([N+](=O)[O-])c(OCC)n1
T/C [2]: 101 % of control
T/C [3]: 106 % of control
T/C [4]: 108 % of control
T/C [5]: 106 % of control

COc1ccc(C2(C#N)CC2)cc1
T/C [3]: 95 % of control
T/C [6]: 91 % of control
T/C [4]: 100 % of control
T/C [7]: 100 % of control
T/C [5]: 104 % of control
T/C [8]: 108 % of control

CN(N/C=N/S(=O)(=O)c1ccccc1)c1ccccc1
T/C [2]: 94 % of control
T/C [3]: 93 % of control

O=C(O)C1C2C=CC(C2)C1C(F)(F)C(F)(F)C(F)(F)F (configuration not stated)
T/C [9]: 100 % of control
T/C (dose: 200.0 mg/kg/injection, schedule: Q01DX001 (ip), vehicle: saline with Tween-80): 104 % of control
T/C [10]: 118 % of control

COc1ccc(/C=C/C(=O)c2ccc3c(c2)OCO3)cc1OC
T/C (dose: 44.0 mg/kg/injection, schedule: Q01DX009 (ip), vehicle: saline with Tween-80): 109 % of control
T/C (dose: 44.0 mg/kg/injection, schedule: Q04DX003 (ip), vehicle: saline with Tween-80): 109 % of control
T/C (dose: 66.0 mg/kg/injection, schedule: Q01DX009 (ip), vehicle: saline with Tween-80): 118 % of control
T/C (dose: 66.0 mg/kg/injection, schedule: Q04DX003 (ip), vehicle: saline with Tween-80): 109 % of control
T/C (dose: 88.0 mg/kg/injection, schedule: Q01DX009 (ip), vehicle: saline with Tween-80): 123 % of control
T/C [6]: 109 % of control
T/C (dose: 150.0 mg/kg/injection, schedule: Q04DX003 (ip), vehicle: saline with Tween-80): 109 % of control
T/C [4]: 157 % of control
T/C [5]: 194 % of control

O=C/C=C/Nc1ccccc1
T/C [3]: 122 % of control
T/C [4]: 109 % of control
T/C [5]: 90 % of control

C(=Nc1ccccc1)c1ccccc1C=Nc1ccccc1
T/C [6]: 104 % of control
T/C [7]: 109 % of control
T/C [8]: 100 % of control

O=C1CSC(=S)N1c1ccco1
T/C (dose: 50.0 mg/kg/injection, schedule: Q01DX001 (ip), vehicle: Klucel (hydroxypropylcellulose) (HPC)): 100 % of control
T/C (dose: 100.0 mg/kg/injection, schedule: Q01DX001 (ip), vehicle: Klucel (hydroxypropylcellulose) (HPC)): 95 % of control
T/C (dose: 100.0 mg/kg/injection, schedule: Q04DX003 (ip), vehicle: saline): 104 % of control
T/C (dose: 200.0 mg/kg/injection, schedule: Q01DX001 (ip), vehicle: Klucel (hydroxypropylcellulose) (HPC)): 95 % of control
T/C (dose: 200.0 mg/kg/injection, schedule: Q04DX003 (ip), vehicle: saline): 100 % of control
T/C (dose: 400.0 mg/kg/injection, schedule: Q04DX003 (ip), vehicle: saline): 100 % of control

C[n+]1c(-c2ccc(Cl)cc2Cl)c2cc(N)ccc2c2ccccc21
T/C (dose: 0.09 mg/kg/injection, schedule: Q01DX009 (ip), vehicle: water): 98 % of control
T/C (dose: 0.19 mg/kg/injection, schedule: Q01DX009 (ip), vehicle: water): 90 % of control
T/C (dose: 0.39 mg/kg/injection, schedule: Q01DX009 (ip), vehicle: water): 98 % of control
T/C (dose: 0.78 mg/kg/injection, schedule: Q01DX009 (ip), vehicle: water): 98 % of control
T/C (dose: 1.56 mg/kg/injection, schedule: Q01DX009 (ip), vehicle: water): 102 % of control and 120 % of control
T/C (dose: 3.12 mg/kg/injection, schedule: Q01DX009 (ip), vehicle: water): 98 % of control and 112 % of control

CN(C)[C@@H]1C(=O)C(C(N)=O)=C(O)[C@@]2(O)C(=O)C3=C(O)c4c(O)ccc(Cl)c4[C@@](C)(O)[C@H]3C[C@@H]12
T/C (dose: 132.0 mg/kg/injection, schedule: Q01DX009 (ip), vehicle: saline): 122 % of control
T/C [11]: 122 % of control

CCN1CCC2(CC1)COCc1ccccc12
T/C (dose: 50.0 mg/kg/injection, schedule: Q04DX002 (ip), vehicle: saline with Tween-80): 107 % of control
T/C (dose: 100.0 mg/kg/injection, schedule: Q04DX002 (ip), vehicle: saline with Tween-80): 91 % of control

O=C(/C=C/c1cccc(Cl)c1)c1ccccc1
T/C (dose: 100.0 mg/kg/injection, schedule: Q01DX009 (ip), vehicle: Klucel (hydroxypropylcellulose) (HPC)): 115 % of control

CCOC(=O)C1C(=O)C(C(=O)Nc2ccccc2)C(=O)C(C(=O)OCC)C1c1ccc(O)cc1 (configuration not stated)
T/C [6]: 110 % of control and 90 % of control
T/C [7]: 115 % of control
T/C [8]: 110 % of control and 100 % of control

O=[N+]([O-])c1ccc(N/N=C2/C3CCC(C3)C2C(O)(C(F)(F)F)C(F)(F)F)c([N+](=O)[O-])c1 (configuration not stated)
T/C [6]: 90 % of control
T/C [7]: 90 % of control
T/C [8]: 95 % of control

COc1cc2cc3c4ccccc4cc[n+]3c(C)c2cc1OC (tested in a mixture with another compound)
T/C (dose: 5.0 mg/kg/injection, schedule: Q04DX003 (ip), vehicle: saline): 101 % of control
T/C (dose: 20.0 mg/kg/injection, schedule: Q01DX009 (ip), vehicle: saline): 109 % of control
T/C (dose: 40.0 mg/kg/injection, schedule: Q01DX009 (ip), vehicle: saline): 104 % of control
T/C (dose: 80.0 mg/kg/injection, schedule: Q04DX003 (ip), vehicle: saline): 109 % of control

CCN(CC)C(=O)COc1cc2c(O)c3c(O)c(C)c4c(c13)C(=O)C(C)(OC=CC(OC)C(C)C(OC(C)=O)C(C)C(O)C(C)C(O)C(C)C=CC=C(C)C(=O)N2)O4 (configuration not stated)
T/C [12]: 109 % of control
T/C (dose: 100.0 mg/kg/injection, schedule: Q01DX009 (ip), vehicle: saline): 109 % of control
T/C [11]: 123 % of control

COc1cc(C(=O)N(CCCl)N=O)cc(OC)c1OC
T/C (dose: 25.0 mg/kg/injection, schedule: Q04DX003 (ip), vehicle: saline with Tween-80): 100 % of control
T/C [2]: 100 % of control
T/C (dose: 50.0 mg/kg/injection, schedule: Q04DX003 (ip), vehicle: saline with Tween-80): 100 % of control
T/C [3]: 100 % of control
T/C [6]: 100 % of control and 109 % of control
T/C [4]: 100 % of control
T/C [7]: 100 % of control
T/C [8]: 109 % of control

Cc1nc(NN)c(C(N)=O)nc1C
T/C (dose: 12.5 mg/kg/injection, schedule: Q01DX009 (ip), vehicle: saline): 97 % of control
T/C (dose: 25.0 mg/kg/injection, schedule: Q01DX009 (ip), vehicle: saline): 89 % of control
T/C (dose: 25.0 mg/kg/injection, schedule: Q04DX003 (ip), vehicle: saline): 106 % of control
T/C [12]: 93 % of control and 120 % of control
T/C (dose: 50.0 mg/kg/injection, schedule: Q04DX003 (ip), vehicle: saline): 102 % of control

CN(Cc1ccccc1)c1ccc(/C=C/c2ccnc3ccccc23)cc1
T/C (dose: 12.5 mg/kg/injection, schedule: Q01DX001 (ip), vehicle: saline with Tween-80): 93 % of control
T/C (dose: 25.0 mg/kg/injection, schedule: Q01DX001 (ip), vehicle: saline with Tween-80): 89 % of control
T/C (dose: 50.0 mg/kg/injection, schedule: Q01DX001 (ip), vehicle: saline with Tween-80): 88 % of control
T/C [9]: 93 % of control
T/C [10]: 94 % of control

CCCCCCCCCCCCCCOc1ccc(Cc2ccccc2)cc1
T/C [1]: 100 % of control
T/C (dose: 200.0 mg/kg/injection, schedule: Q04DX003 (ip), vehicle: Klucel (hydroxypropylcellulose) (HPC)): 90 % of control
